Several values for one entry are separate records, joined by “and”; a condition that tells them apart may be missing. Equal entries are not always repeated. Each block holds one compound with its values, some of them ahead of it.
Test system: 832693-133-R-J1-PDC multi-cell spheroids, viability
Test: Anticancer human tumor 832693-133-R-J1-PDC patient-derived head and neck squamous carcinoma cell line growth inhibition [IpAb]
Details: for viability, T/C: stronger effect = lower value
Method in brief: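 Multi-cell spheroids of 60% tumour cells, 25% HUVEC and 15% MSC in ultra-low-attachment U-bottom wells, treated with agents combined with ipatasertib or abemaciclib. Half-log ranges top out near clinical Cmax, or 10 microM when Cmax is unknown.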
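Further: spheroids exposed to the drugs for one week before the viability readout.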
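Wherever viability, T/C is given: 100% = DMSO vehicle control wells.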

Compound: C=CC(=O)N1CCN(c2nc(=O)n(-c3c(C)ccnc3C(C)C)c3nc(-c4c(O)cccc4F)c(F)cc23)C(C)C1 (configuration not stated) + CC(C)NCC(C(=O)N1CCN(c2ncnc3c2C(C)CC3O)CC1)c1ccc(Cl)cc1
IC50 (curve of first compound, second compound 0.1 µM): > 10000 nM | IC50 (curve of first compound, second compound 0.316 µM): 4460 nM | IC50 (curve of first compound, second compound 1 µM): 237 nM | IC50 (curve of first compound, second compound 3.16 µM): 309 nM | IC50 (curve of first compound, second compound 10 µM): 3740 nM | viability, T/C (second compound 0.1 µM, first compound 0.0316 µM): 96.1% | viability, T/C (second compound 0.1 µM, first compound 0.1 µM): 91.6% | viability, T/C (second compound 0.1 µM, first compound 0.316 µM): 86% | viability, T/C (second compound 0.1 µM, first compound 1 µM): 92.2% | viability, T/C (second compound 0.1 µM, first compound 3.16 µM): 104% | viability, T/C (second compound 0.1 µM, first compound 10 µM): 77.3% | viability, T/C (second compound 0.316 µM, first compound 0.0316 µM): 81.1% | viability, T/C (second compound 0.316 µM, first compound 0.1 µM): 75.3% | viability, T/C (second compound 0.316 µM, first compound 0.316 µM): 70.9% | viability, T/C (second compound 0.316 µM, first compound 1 µM): 67.2% | viability, T/C (second compound 0.316 µM, first compound 3.16 µM): 56.6% | viability, T/C (second compound 0.316 µM, first compound 10 µM): 36.6% | viability, T/C (second compound 1 µM, first compound 0.0316 µM): 53.6% | viability, T/C (second compound 1 µM, first compound 0.1 µM): 55% | viability, T/C (second compound 1 µM, first compound 0.316 µM): 48.2% | viability, T/C (second compound 1 µM, first compound 1 µM): 41.8% | viability, T/C (second compound 1 µM, first compound 3.16 µM): 34.7% | viability, T/C (second compound 1 µM, first compound 10 µM): 18.8% | viability, T/C (second compound 3.16 µM, first compound 0.0316 µM): 55.7% | viability, T/C (second compound 3.16 µM, first compound 0.1 µM): 52.4% | viability, T/C (second compound 3.16 µM, first compound 0.316 µM): 49.1% | viability, T/C (second compound 3.16 µM, first compound 1 µM): 43% | viability, T/C (second compound 3.16 µM, first compound 3.16 µM): 36.8% | viability, T/C (second compound 3.16 µM, first compound 10 µM): 17% | viability, T/C (second compound 10 µM, first compound 0.0316 µM): 53.4% | viability, T/C (second compound 10 µM, first compound 0.1 µM): 69% | viability, T/C (second compound 10 µM, first compound 0.316 µM): 65.8% | viability, T/C (second compound 10 µM, first compound 1 µM): 57.3% | viability, T/C (second compound 10 µM, first compound 3.16 µM): 56% | viability, T/C (second compound 10 µM, first compound 10 µM): 18.4%

IC50 (curve of compound): 599 nM and 533 nM
Compound: Cc1nc(NC(=O)N2CCCC2C(N)=O)sc1-c1ccnc(C(C)(C)C(F)(F)F)c1 (configuration not stated)
viability, T/C (compound 0.0316 µM): 93.3% and 84.1% | viability, T/C (compound 0.1 µM): 80.6% and 87.4% | viability, T/C (compound 0.316 µM): 66.7% and 55.5% | viability, T/C (compound 1 µM): 36.9% and 39.1% | viability, T/C (compound 3.16 µM): 17.8% and 12.8% | viability, T/C (compound 10 µM): 4.84% and 2.57%

Source: PubChem BioAssay AID2060337 (Molecular Pharmacology Branch, DTP, NCI, 2025)
